US8669291B2, “Phenyl substituted cycloalkylamines as monoamine reuptake inhibitors” (Sunovion Pharmaceuticals Inc., priority 2007, dated 2014)
Read-outs that look alike come from different tables or passages of the source.

Assays:
[1] = target: T1, human dopamine (DA) reuptake transporter (Homo sapiens, UniProt Q01959); experiment: functional uptake assay, human DA reuptake transporter; type: cell-based
T1 construct: expressed in transfected cells
Protocol: (§1) Compounds were tested for their inhibition of functional uptake of serotonin (5-HT), norepinephrine (NE), and dopamine (DA), in synaptosomes prepared from rat whole brain, hypothalamus, or corpus striatum, respectively, and/or using recombinant human transporters.

[2] = target: T2, human norepinephrine (NE) reuptake transporter (Homo sapiens, UniProt P23975); experiment: functional uptake assay, human NE reuptake transporter; type: cell-based
T2 construct: expressed in transfected cells
Protocol: as §1

[3] = human metabolic stability (HLM t1/2); type: in vitro ADME; conditions: human liver microsomes
Text: (§2) 4b. In Vitro PK Data (Human Metabolic Stability, Inhibition of CYP450 Enzymes, Inhibition of HERG Current)

[4] = target: T3, human serotonin (5-HT) reuptake transporter (Homo sapiens, UniProt P31645); experiment: functional uptake assay, human 5-HT reuptake transporter; type: cell-based
T3 construct: expressed in transfected cells
Protocol: as §1

mice [5] = experiment: Mouse Tail Suspension Test; type: in vivo; conditions: PO
Protocol: The method, which detects antidepressant activity, follows that described by Stéru et al (Psychopharmacology, 85: 367-370 (1985)). Rodents, suspended by the tail, rapidly become immobile. Antidepressants decrease the duration of immobility.
The behavior of the animal was recorded automatically for 5 minutes using a computerized device (Med-Associates Inc.) similar to that developed by Stéru et al (Prog. Neuropsychopharmacol. Exp. Psychiatry 11: 659-671 (1987)). Ten to twelve mice were tested in each group. Compounds were typically evaluated at 3 doses (1-30 mg/kg), administered orally one time: 30-60 minutes before the test, and compared with a vehicle control group. Desipramine (100 mg/kg), administered under the same experimental conditions, was used as the positive reference substance.
(§3) Data were analyzed by one way analysis of variance (ANOVA) followed by post-hoc comparisons where appropriate. An effect was considered significant if p<0.05. Data are represented as the mean and standard error to the mean (s.e.m).

mice [6] = experiment: Mouse Locomotor Activity; type: in vivo; conditions: PO
Protocol: In order to ensure effects of the compounds on immobility time were not related to a general stimulant effect on baseline motor activity, locomotor activity was assessed using photocell monitored cages (Med-Associates Inc.). Each test chamber was equipped with infrared photocell beams to measure movement of the animals. Horizontal and vertical activity were measured.
Rats or mice were pretreated with vehicle or test compounds and placed back in home cage, following which they were individually placed in locomotor cages and activity was monitored in 1-5 minute intervals for intervals up to 60 min.
as §3

HERG current = HERG current (Homo sapiens, UniProt Q12809); experiment: inhibition of HERG current; type: cell-based
Text: as §2

[7] = test system: CYP2D6, CYP2C9, CYP3A4, CYP2C19, CYP1A (printed 1a); experiment: inhibition of CYP450 enzymes; type: in vitro ADME; conditions: 5 isoforms; read-out: CYP inhibition IC50 (microM) 5 isoforms (2D6, 2C9, 3A4, 2C19, 1a)
Text: as §2

6-OHDA lesioned rat = experiment: 6-OHDA-lesioned rat Parkinson's disease model, paw placing test; type: in vivo
Protocol: The effects of compound 4 alone and in combination with L-DOPA were evaluated in the rodent 6-OHDA-lesioned rat Parkinson's disease model. The method, which detects antiparkinson activity (reversal of motor deficits and akinesia), follows that described by Henry et al. (Exp Neurol, 151(2): 334-42, 1998).
Animal Preparation: Prior to surgery, rats were administered pargyline (5 mg/kg, ip) and desipramine (25 mg/kg ip) to optimize subsequent 6-OHDA availability and increase specificity for toxicity to dopaminergic neurons. Rats were then anesthetized with isoflurane and placed in a stereotaxic frame. After exposure of Bregma, a burr hole was drilled in the skull above the right median forebrain bundle at co-ordinates: 2.8 mm posterior and 2 mm lateral to Bregma (according to the atlas of Paxinos and Watson, 1986). […]
Paw Placing Test: The paw placing test assesses correct placing of each forepaw in response to a sensory stimulus. […] The test was quantified as the percentage of successful placing responses of the limb contralateral to the side of the 6-OHDA lesion. […]
Drug Administration: For the monotherapy experiment, the effects of 5 different treatments were assessed: 1) vehicle (sterile water, PO), 2) 3 mg/kg compound 4 (PO), 3) 10 mg/kg compound 4 (PO), 4) 30 mg/kg compound 4 and 5) 6.5 mg/kg (IP) of the positive reference substance, L-DOPA. […]

[8] = Example 6 summary of selected in vitro data, read-out: 5-HT IC50

T1 sequence (Q01959 whole entry): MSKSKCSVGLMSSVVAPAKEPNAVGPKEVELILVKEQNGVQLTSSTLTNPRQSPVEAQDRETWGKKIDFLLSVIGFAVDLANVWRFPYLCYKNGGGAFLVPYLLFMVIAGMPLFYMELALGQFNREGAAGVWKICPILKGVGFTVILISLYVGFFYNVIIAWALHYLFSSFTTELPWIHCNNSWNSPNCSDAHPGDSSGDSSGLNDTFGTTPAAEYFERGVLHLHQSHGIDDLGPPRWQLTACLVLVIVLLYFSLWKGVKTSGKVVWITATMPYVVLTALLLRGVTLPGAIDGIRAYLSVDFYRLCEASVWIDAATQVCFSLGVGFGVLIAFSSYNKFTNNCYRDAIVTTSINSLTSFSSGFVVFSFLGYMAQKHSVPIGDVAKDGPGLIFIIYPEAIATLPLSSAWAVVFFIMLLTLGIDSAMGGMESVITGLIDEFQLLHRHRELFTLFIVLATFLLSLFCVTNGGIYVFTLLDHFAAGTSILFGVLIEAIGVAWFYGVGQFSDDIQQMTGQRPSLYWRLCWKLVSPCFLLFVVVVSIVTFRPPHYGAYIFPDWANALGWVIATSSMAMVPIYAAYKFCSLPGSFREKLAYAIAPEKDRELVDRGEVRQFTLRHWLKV
T2 sequence (P23975 whole entry): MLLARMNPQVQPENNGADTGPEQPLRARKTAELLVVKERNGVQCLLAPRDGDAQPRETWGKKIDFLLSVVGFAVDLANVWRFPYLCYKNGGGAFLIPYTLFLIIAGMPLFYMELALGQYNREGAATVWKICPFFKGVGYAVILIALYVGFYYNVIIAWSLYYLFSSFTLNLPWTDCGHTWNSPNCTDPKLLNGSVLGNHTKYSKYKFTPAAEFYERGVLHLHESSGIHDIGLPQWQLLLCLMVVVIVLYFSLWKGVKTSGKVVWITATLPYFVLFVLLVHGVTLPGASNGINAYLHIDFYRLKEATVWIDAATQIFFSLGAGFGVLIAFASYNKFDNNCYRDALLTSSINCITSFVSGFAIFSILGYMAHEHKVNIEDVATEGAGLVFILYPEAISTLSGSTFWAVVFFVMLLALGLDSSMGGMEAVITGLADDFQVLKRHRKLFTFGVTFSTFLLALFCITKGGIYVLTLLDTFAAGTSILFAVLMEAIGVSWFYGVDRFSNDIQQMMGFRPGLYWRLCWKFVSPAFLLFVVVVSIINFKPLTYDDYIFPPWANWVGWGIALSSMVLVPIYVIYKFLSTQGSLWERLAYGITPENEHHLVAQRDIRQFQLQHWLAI
T3 sequence (P31645 whole entry): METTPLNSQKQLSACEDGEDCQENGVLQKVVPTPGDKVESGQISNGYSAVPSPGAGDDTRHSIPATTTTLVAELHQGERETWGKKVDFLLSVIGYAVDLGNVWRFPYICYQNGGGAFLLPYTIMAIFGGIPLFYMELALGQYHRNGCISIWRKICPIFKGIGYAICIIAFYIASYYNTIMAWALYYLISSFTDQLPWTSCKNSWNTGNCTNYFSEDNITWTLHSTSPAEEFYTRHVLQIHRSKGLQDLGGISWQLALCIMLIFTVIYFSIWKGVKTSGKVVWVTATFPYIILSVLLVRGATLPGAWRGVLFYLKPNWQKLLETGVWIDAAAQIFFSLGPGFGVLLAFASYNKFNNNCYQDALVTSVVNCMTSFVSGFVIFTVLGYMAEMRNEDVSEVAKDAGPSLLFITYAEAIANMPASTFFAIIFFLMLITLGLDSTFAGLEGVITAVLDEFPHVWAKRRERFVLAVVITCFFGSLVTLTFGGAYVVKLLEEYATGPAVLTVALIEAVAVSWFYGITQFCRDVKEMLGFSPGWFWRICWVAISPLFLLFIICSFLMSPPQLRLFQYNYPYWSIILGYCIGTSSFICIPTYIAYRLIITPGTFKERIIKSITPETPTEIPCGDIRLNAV
Chain of HERG current (Q12809 whole entry): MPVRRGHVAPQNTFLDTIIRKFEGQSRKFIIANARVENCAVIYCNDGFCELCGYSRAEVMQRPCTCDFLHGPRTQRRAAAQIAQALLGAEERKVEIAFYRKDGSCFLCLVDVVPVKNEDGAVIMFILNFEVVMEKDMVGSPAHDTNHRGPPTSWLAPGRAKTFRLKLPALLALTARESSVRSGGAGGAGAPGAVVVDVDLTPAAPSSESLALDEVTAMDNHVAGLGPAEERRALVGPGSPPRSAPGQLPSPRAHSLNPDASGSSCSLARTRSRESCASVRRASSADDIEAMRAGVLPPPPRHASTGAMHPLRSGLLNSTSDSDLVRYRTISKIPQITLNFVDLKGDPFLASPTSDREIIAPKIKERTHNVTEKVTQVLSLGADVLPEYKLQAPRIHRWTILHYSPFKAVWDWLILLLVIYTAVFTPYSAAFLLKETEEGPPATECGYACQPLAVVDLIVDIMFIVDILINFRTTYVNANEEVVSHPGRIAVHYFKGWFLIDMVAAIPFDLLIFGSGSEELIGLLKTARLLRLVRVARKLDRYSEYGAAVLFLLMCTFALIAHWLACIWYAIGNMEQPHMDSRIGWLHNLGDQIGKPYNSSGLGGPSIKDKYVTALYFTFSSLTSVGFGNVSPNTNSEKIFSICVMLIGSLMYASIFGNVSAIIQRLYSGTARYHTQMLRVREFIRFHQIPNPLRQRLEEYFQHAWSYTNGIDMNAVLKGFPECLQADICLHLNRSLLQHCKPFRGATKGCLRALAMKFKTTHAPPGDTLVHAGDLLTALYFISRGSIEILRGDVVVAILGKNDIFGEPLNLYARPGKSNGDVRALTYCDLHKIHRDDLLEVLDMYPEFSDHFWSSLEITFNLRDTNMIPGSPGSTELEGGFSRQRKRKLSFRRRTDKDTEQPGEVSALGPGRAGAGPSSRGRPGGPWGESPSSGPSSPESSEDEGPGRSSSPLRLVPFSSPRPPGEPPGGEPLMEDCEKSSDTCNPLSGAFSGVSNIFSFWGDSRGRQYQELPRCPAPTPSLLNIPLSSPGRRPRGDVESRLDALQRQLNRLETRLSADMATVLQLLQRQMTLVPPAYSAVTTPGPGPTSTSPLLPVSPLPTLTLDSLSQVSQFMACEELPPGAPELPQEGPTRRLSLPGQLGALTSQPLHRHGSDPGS

| Compound | IC50 [1] [nM] | IC50 [2] [nM] | half-life [3] [h] | IC50 [4, 8] [nM] | Mouse Tail Suspension Mean Immobility Time ± S.E.M. (mice [5]; 1 mg/kg) | Mouse Tail Suspension Mean Immobility Time ± S.E.M. (mice [5]; 10 mg/kg) | Mouse Tail Suspension Mean Immobility Time ± S.E.M. (mice [5]; 30 mg/kg) | Mouse Locomotor Activity Total Distance Traveled ± S.E.M. (mice [6]; 1 mg/kg) | Mouse Locomotor Activity Total Distance Traveled ± S.E.M. (mice [6]; 10 mg/kg) | Mouse Locomotor Activity Total Distance Traveled ± S.E.M. (mice [6]; 30 mg/kg) | IC50 [7] [µM] | other results |
| --- | --- | --- | --- | --- | --- | --- | --- | --- | --- | --- | --- | --- |
| CN(C)C[C@@H]1CCCC[C@@]1(O)c1ccc(Cl)c(Cl)c1 (single isomer, unassigned) [Compound 2, cis-1-(3,4-dichlorophenyl)-2-((dimethylamino)methyl)cyclohexanol] | 10 to 200 | 10 to 200 | 0.417 to 2.92 | 1 to 2000 | +++ (171-190 (+++)) | + (100-160 (+)) | + (100-160 (+)) | ** (501-700 (**)) | **** (>901 (****)) | * (100-500 (*)) | > 20 | IC50 ([1]; Example 6 summary of selected in vitro data, read-out: DA IC50): 10 to 200 nM; IC50 ([2]; Example 6 summary of selected in vitro data, read-out: NE IC50): 10 to 200 nM; IC50 ([4]; 5-HT IC50 (nM), Example 4a, human reuptake transporter): 7000 to 10000 nM; Mouse Tail Suspension Mean Immobility Time ± S.E.M. (mice [5]; 0.3 mg/kg): +++ (171-190 (+++)); Mouse Locomotor Activity Total Distance Traveled ± S.E.M. (mice [6]; 0.3 mg/kg): ** (501-700 (**)); IC50 (HERG current; read-out: HERG IC50): 16 to 30 µM |
| CNC[C@@H]1CCCC[C@@]1(O)c1ccc(Cl)c(Cl)c1 [Compound 4] | 10 to 200 | 10 to 200 | 2.93 to 5.42 | > 10000 | ++++ (>191 (++++)) | +++ (171-190 (+++)) | + (100-160 (+)) | ** (501-700 (**)) | *** (701-900 (***)) | * (100-500 (*)) | > 10 | IC50 ([1]; read-out: DA IC50 nM, Example 6 summary of selected in vitro data): 10 to 200 nM; IC50 ([2]; read-out: NE IC50 nM, Example 6 summary of selected in vitro data): 10 to 200 nM; IC50 ([4]; Example 4a, human reuptake transporter, read-out: 5-HT IC50): > 10000 nM; Mouse Tail Suspension Mean Immobility Time ± S.E.M. (mice [5]; 3 mg/kg): ++++ (>191 (++++)); Mouse Locomotor Activity Total Distance Traveled ± S.E.M. (mice [6]; 3 mg/kg): ** (501-700 (**)); IC50 (HERG current): 1 to 15 µM; paw placement performance (6-OHDA lesioned rat; 10 mg/kg, PO in combination with low dose L-DOPA, FIG. 6): significantly increased paw placement performance; performance in the paw placement task (6-OHDA lesioned rat; alone, 3-30 mg/kg, PO): little or no improvement in performance |
